From PMC8880385 (Pharmaceuticals, 2022)
Like-named read-outs stand apart in the source and are kept apart here.

What was measured:
in vitro = conditions: dog, MDCK-MDR1
Protocol: Permeability assays were conducted using 5 µM of each test compound with digoxin as a control. […] electrical resistance was used to verify the integrity of the MDCK-MDR1 monolayer. After compound addition, plates were incubated at 37 °C with 5% CO2 for 1 h. Samples were analyzed by LC–MS/MS and net flux ratio was calculated using basal-to-apical and apical-to-basal permeability.

O. ochengi mf = assay: O. ochengi microfilariae motility assay; format: cell-based, Onchocerca ochengi; conditions: Onchocerca ochengi, 120 h; 10 µM, Day 5
Protocol: To assess the effects of the compounds on O. ochengi mf, the mf were harvested from infected cow skin and cultured (10–15 mf per well) in 100 µL media in 96-well plates with a confluent feeder layer of monkey kidney epithelial cells (MK2) as previously described. […] All compounds were also counter-screened with L. loa mf collected from infected individuals with approval from the University of Buea (IRB approval # 964-19). Mf were separated from blood cells using a Percoll gradient as previously described and set up for assays (10–15 mf per well).

Brugia pahangi = assay: Brugia pahangi/gerbil model of infection: worm and peritoneal mf counts at necropsy; format: in vivo; conditions: gerbil, 1 mg/kg IP once a day for 5 days, necropsy 13 weeks post-first dose; mean (SEM)
Protocol: Male Mongolian gerbils 50–60 g, 5–7 weeks in age (Meriones unguiculatus, Charles River Laboratories International, Inc., Wilmington, MA, USA) were injected intraperitoneally (IP) with 200 third-larval stage B. pahangi and treated a minimum of 3 months later when larvae developed into adult worms.
Animals were given IP doses of 1 mg/kg once a day for 5 days based on in vivo studies by Jones et al., 2009 [14] and gerbil PK analyses. Compounds are light sensitive and were shielded from light during formulation. Animals were necropsied 13 weeks post-first dose, and peritoneal cavities were washed with 100 mL of PBS to collect adult worms and mf that had been released from female worms. Adult worms were separated by sex, counted, and processed for subsequent analyses. Mf from the peritoneal cavities were quantified by mixing peritoneal wash 9:1 (v/v) with 0.04% methylene blue:water and counted using an inverted microscope.
Worm burden, peritoneal mf counts, overnight mf sheds and qPCR data were analyzed using a Kruskal–Wallis test followed by Dunn’s multiple comparison. To determine significant differences in embryograms, a two-way ANOVA was conducted with a Dunnett’s multiple comparisons test, and significance levels were determined based on comparisons with vehicle treated animals. All statistical analyses were determined using Prism 8 version 8.2.0(272).

[1] = tested on: O. volvulus third-stage larvae (L3); assay: O. volvulus L3 to L4 molting assay; format: cell-based, Onchocerca volvulus; conditions: Day 6, read-out: O. volvulus L3 Inhibition of Molting Day 6 IC50
Protocol: O. volvulus, like other nematodes, undergo molts during their larval stages as they develop into the adult form. […] The molting assay tests the potency of compounds to prevent the L3 from molting to the L4 stage in vitro. […] Briefly, 5–10 Ov L3 collected from infected Simulium blackflies and frozen in liquid nitrogen were thawed and plated in 96-well plates seeded with 0.2 × 10^6 normal human peripheral blood mononuclear cells (PBMCs) in 100 µL complete medium containing 20% heat inactivated FBS and treated with compounds at 10, 3, 1, 0.3, 0.1 and 0.03 μM. L3 exposed to 0.5% DMSO or complete media only were run as negative controls. Larvae were incubated at 37 °C with 5% CO2, and molting was determined by examining the wells for highly motile L4 larvae and empty L3 casts after 6 days in culture.

O. volvulus pre-adult L5 [2] = assay: O. volvulus pre-adult (Ov L5) motility assay; format: cell-based, Onchocerca volvulus; conditions: Onchocerca volvulus, Day 36 @ 1 µM; 14 days drug then washout
Protocol: O. volvulus adult male and female worms, which can only be obtained from infected individuals, are not readily accessible for ex vivo studies. Moreover, since there is no small animal model that can maintain infections by O. volvulus, a recently developed in vitro system was used to evaluate the macrofilaricidal effects on pre-adult worms. All compounds except for 04 were tested in this O. volvulus pre-adult/L5 motility and viability assay.
(§1) Briefly, Ov L3 larvae were cultured to the pre-adult/L5 stage in vitro as described by Voronin et al., 2019 [45]. Once larvae reached the L5 stage (after at least 70 days in culture), 8–10 Ov L5 were moved to new transwell inserts in a 24-well plate containing 0.5 mL Ov L4-CMS media seeded with a 3 × 10^4/well Human Umbilical Vein Endothelial Cells (HUVEC) monolayer. Duplicate wells were treated with 1 and/or 10 µM of compound. Ov L5 were exposed to compounds for 14 days (exchanged 50% of media with fresh compound every two days) and then cultured with new media without compound, exchanging 50% of media every 2–3 days, up to day 36. Control Ov L5 were treated with 0.05% DMSO. Concentrations were chosen based on activity in the B. pahangi female motility assay. Motility was assessed visually and ranked on a 0–100% scale every 2–3 days over the course of the assay. At the end of the motility assay, Ov L5 viability was measured by 3-(4,5-dimethylthiazol-2-yl)-2,5-diphenyltetrazolium bromide (MTT) assay. Ov L5 were incubated with 0.1% MTT in PBS at 37 °C for 1 h then visually inspected for blue coloration indicating MTT reduction. Worms were considered dead if <50% of the worm was stained blue, and worms were considered alive if >50% of the worm was stained blue.

O. volvulus pre-adult L5 [3] = assay: Ov L5 viability by endpoint MTT assay; format: cell-based, Onchocerca volvulus; conditions: 1 µM
Protocol: as §1, with “Concentrations were chosen based on activity in the B. pahangi female motility assay.” left out

O. volvulus pre-adult L5 [4] = assay: O. volvulus pre-adult (Ov L5) motility assay; format: cell-based; conditions: Onchocerca volvulus, 504 h; on Day 21; read-out: O. volvulus L5 Inhibition of Motility IC50

Cc1ccc2c(ccc(/C=C/c3c(C)nn(-c4ccccc4)c3C)[n+]2C)c1.[I-] [Analog 06, 2-[(E)-2-(3,5-dimethyl-1-phenyl-1H-pyrazol-4-yl)ethenyl]-1,6-dimethylquinolin-1-ium iodide] gave a Papp A→B (in vitro) of 0.5 ×10⁻⁶ cm/s, a Papp B→A (in vitro) of 12.1 ×10⁻⁶ cm/s and an inhibition at 10 µM (O. ochengi mf) of 46%. The “Adult worms per animal” value (Brugia pahangi) was 31.3 (11.8), the “Female worms per animal” value (Brugia pahangi) was 15.9 (5.7) and the “Male worms per animal” value (Brugia pahangi) was 15.4 (6.1). For the same compound, the “Mf per animal (peritoneal cavity)” value (Brugia pahangi) was 915,000 (263,235), the IC50 [1] was 0.46 µM and the IC50 ([1]; Onchocerca volvulus, 144 h) was 0.458 µM. The inhibition at 1 µM (O. volvulus pre-adult L5 [2]) was over 90%, the “O. volvulus L5 % inhibition of viability Day 37 (MTT assay)” value (O. volvulus pre-adult L5 [3]) was 88% and the IC50 (O. volvulus pre-adult L5 [4]) was 0.22 µM.
